Test results published in PubChem BioAssay AID2060499 (Molecular Pharmacology Branch, DTP, NCI, 2025).

Test system: 777334-354-R2-J4-PDC tumor spheroids with HUVEC/MSC, viability
Assay: Anticancer human tumor 777334-354-R2-J4-PDC patient-derived pancreatic adenocarcinoma cell line growth inhibition [GQUAD]
Conditions: for IC50: curve of first compound; for viability, T/C: stronger effect = lower value
In short: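 Multi-cell-type spheroids of tumor cells with HUVEC and mesenchymal stem cells, treated with drug combinations. Concentrations descend in half-log steps from near clinical Cmax, or from 10 microM where Cmax is unknown; viability read-out.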

[1] = second compound 0.0316 µM, first compound 0.0316 µM
[2] = second compound 0.0316 µM, first compound 0.1 µM
[3] = second compound 0.0316 µM, first compound 0.316 µM
[4] = second compound 0.0316 µM, first compound 1 µM
[5] = second compound 0.0316 µM, first compound 3.16 µM
[6] = second compound 0.0316 µM, first compound 10 µM
[7] = second compound 0.1 µM, first compound 0.0316 µM
[8] = second compound 0.1 µM, first compound 0.1 µM
[9] = second compound 0.1 µM, first compound 0.316 µM
[10] = second compound 0.1 µM, first compound 1 µM
[11] = second compound 0.1 µM, first compound 3.16 µM
[12] = second compound 0.1 µM, first compound 10 µM
[13] = second compound 0.316 µM, first compound 0.0316 µM
[14] = second compound 0.316 µM, first compound 0.1 µM
[15] = second compound 0.316 µM, first compound 0.316 µM
[16] = second compound 0.316 µM, first compound 1 µM
[17] = second compound 0.316 µM, first compound 3.16 µM
[18] = second compound 0.316 µM, first compound 10 µM
[19] = second compound 1 µM, first compound 0.0316 µM
[20] = second compound 1 µM, first compound 0.1 µM
[21] = second compound 1 µM, first compound 0.316 µM
[22] = second compound 1 µM, first compound 1 µM
[23] = second compound 1 µM, first compound 3.16 µM
[24] = second compound 1 µM, first compound 10 µM
[25] = second compound 3.16 µM, first compound 0.0316 µM
[26] = second compound 3.16 µM, first compound 0.1 µM
[27] = second compound 3.16 µM, first compound 0.316 µM
[28] = second compound 3.16 µM, first compound 1 µM
[29] = second compound 3.16 µM, first compound 3.16 µM
[30] = second compound 3.16 µM, first compound 10 µM
[31] = second compound 10 µM, first compound 0.0316 µM
[32] = second compound 10 µM, first compound 0.1 µM
[33] = second compound 10 µM, first compound 0.316 µM
[34] = second compound 10 µM, first compound 1 µM
[35] = second compound 10 µM, first compound 3.16 µM
[36] = second compound 10 µM, first compound 10 µM
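Further: spheroids exposed to compounds for 7 days before readout.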

`Nc1ccn(C2OC(CO)C(O)C2(F)F)c(=O)n1` (stereo unspecified) + Cc1cnc(CNC(=O)c2c(=O)c3ccc(N4CCCN(C)CC4)nc3n3c2sc2ccccc23)cn1 gave an IC50 (second compound 0.0316 µM) of 0.975 µM, an IC50 (second compound 0.1 µM) of 0.679 µM and an IC50 (second compound 0.316 µM) of 1.2 µM. For the same compound, the IC50 (second compound 1 µM) was 0.334 µM, the IC50 (second compound 3.16 µM) was 0.503 µM and the IC50 (second compound 10 µM) was 0.18 µM. It also gave a viability, T/C [1] of 81.2%, a viability, T/C [2] of 61.2% and a viability, T/C [3] of 69.1%. It also gave a viability, T/C [4] of 46.3%, a viability, T/C [5] of 39.1% and a viability, T/C [6] of 31.6%. It also gave a viability, T/C [7] of 85.4%, a viability, T/C [8] of 64.5% and a viability, T/C [9] of 60.8%. The viability, T/C [10] was 45.7%, the viability, T/C [11] was 37.5% and the viability, T/C [12] was 32.7%. It also gave a viability, T/C [13] of 81.5%, a viability, T/C [14] of 72.5% and a viability, T/C [15] of 55.5%. It also gave a viability, T/C [16] of 51.7%, a viability, T/C [17] of 47.8% and a viability, T/C [18] of 31.6%. It also gave a viability, T/C [19] of 67.9%, a viability, T/C [20] of 58.2% and a viability, T/C [21] of 46.4%. It also gave a viability, T/C [22] of 45.2%, a viability, T/C [23] of 41.1% and a viability, T/C [24] of 30.2%. For the same compound, the viability, T/C [25] was 61.1%, the viability, T/C [26] was 64% and the viability, T/C [27] was 48.4%. The viability, T/C [28] was 43.9%, the viability, T/C [29] was 43.6% and the viability, T/C [30] was 30.5%. The viability, T/C [31] was 57.3%, the viability, T/C [32] was 48.3% and the viability, T/C [33] was 48.7%. For the same compound, the viability, T/C [34] was 40.4%, the viability, T/C [35] was 41.6% and the viability, T/C [36] was 27%.

`CCCS(=O)(=O)Nc1ccc(F)c(C(=O)c2c[nH]c3ncc(-c4ccc(Cl)cc4)cc23)c1F` + CN(C)c1ccc(Nc2c3ccc(NC(=O)CCN4CCCC4)cc3nc3cc(NC(=O)CCN4CCCC4)ccc23)cc1 was tested, and the IC50 (second compound 0.0316 µM) was 8.17 µM, the IC50 (second compound 0.1 µM) was 8.42 µM and the IC50 (second compound 0.316 µM) was 8.71 µM. It also gave an IC50 (second compound 1 µM) of 8.4 µM, an IC50 (second compound 3.16 µM) of 8.42 µM and an IC50 (second compound 10 µM) of 6.42 µM. It also gave a viability, T/C [1] of 93%, a viability, T/C [2] of 97% and a viability, T/C [3] of 115%. It also gave a viability, T/C [4] of 115%, a viability, T/C [5] of 116% and a viability, T/C [6] of 37.6%. For the same compound, the viability, T/C [7] was 92.5%, the viability, T/C [8] was 105% and the viability, T/C [9] was 127%. It also gave a viability, T/C [10] of 128%, a viability, T/C [11] of 151% and a viability, T/C [12] of 37.6%. The viability, T/C [13] was 101%, the viability, T/C [14] was 98.5% and the viability, T/C [15] was 130%. For the same compound, the viability, T/C [16] was 117%, the viability, T/C [17] was 152% and the viability, T/C [18] was 40.5%. For the same compound, the viability, T/C [19] was 92.4%, the viability, T/C [20] was 98.6% and the viability, T/C [21] was 107%. The viability, T/C [22] was 124%, the viability, T/C [23] was 137% and the viability, T/C [24] was 39%. The viability, T/C [25] was 81.6%, the viability, T/C [26] was 107% and the viability, T/C [27] was 97.6%. It also gave a viability, T/C [28] of 122%, a viability, T/C [29] of 131% and a viability, T/C [30] of 39.8%. For the same compound, the viability, T/C [31] was 88%, the viability, T/C [32] was 87% and the viability, T/C [33] was 87.9%. The viability, T/C [34] was 93.6%, the viability, T/C [35] was 81.1% and the viability, T/C [36] was 30.1%.

`CC1COCCN1c1cc(C2(S(C)(=N)=O)CC2)nc(-c2ccnc3[nH]ccc23)n1` (stereo unspecified) + Cc1cnc(CNC(=O)c2c(=O)c3ccc(N4CCCN(C)CC4)nc3n3c2sc2ccccc23)cn1 was tested, and the IC50 (second compound 0.0316 µM) was over 10 µM, the IC50 (second compound 0.1 µM) was over 10 µM and the IC50 (second compound 0.316 µM) was over 10 µM. For the same compound, the IC50 (second compound 1 µM) was over 10 µM, the IC50 (second compound 3.16 µM) was over 10 µM and the IC50 (second compound 10 µM) was over 10 µM. It also gave a viability, T/C [1] of 103%, a viability, T/C [2] of 85.7% and a viability, T/C [3] of 113%. It also gave a viability, T/C [4] of 93.9%, a viability, T/C [5] of 99% and a viability, T/C [6] of 53.8%. For the same compound, the viability, T/C [7] was 112%, the viability, T/C [8] was 84.4% and the viability, T/C [9] was 94.8%. The viability, T/C [10] was 80.5%, the viability, T/C [11] was 88.9% and the viability, T/C [12] was 53%. It also gave a viability, T/C [13] of 84.1%, a viability, T/C [14] of 87.4% and a viability, T/C [15] of 81.2%. It also gave a viability, T/C [16] of 82%, a viability, T/C [17] of 86.9% and a viability, T/C [18] of 52.3%. For the same compound, the viability, T/C [19] was 76.2%, the viability, T/C [20] was 93.4% and the viability, T/C [21] was 78.5%. It also gave a viability, T/C [22] of 81.5%, a viability, T/C [23] of 68.6% and a viability, T/C [24] of 50.7%. For the same compound, the viability, T/C [25] was 64.5%, the viability, T/C [26] was 57.1% and the viability, T/C [27] was 65%. The viability, T/C [28] was 58.7%, the viability, T/C [29] was 69.2% and the viability, T/C [30] was 54.7%. It also gave a viability, T/C [31] of 56.5%, a viability, T/C [32] of 59.5% and a viability, T/C [33] of 53.5%. It also gave a viability, T/C [34] of 55.9%, a viability, T/C [35] of 57.5% and a viability, T/C [36] of 44.7%.
